Laboratory results taken from paper PMC4068261 (Journal of natural products, 2014).

Legend:
[1] = tested on: HIV-1; test: microbe, parasite or virus in culture; format: cell-based; settings: Human immunodeficiency virus 1, HOG.R5, read-out: anti-HIV activity IC50
[2] = tested on: HIV-1; settings: previous discovery; cited from earlier work

Compound	IC50 [1] [µM]	anti-HIV activity (in words) [2]
COc1cc(O)cc2c1C(=O)C[C@@H](c1ccccc1)O2 [Compound 5, alpinetin]	130	–
C=Cc1c(C)c2cc3nc(c4c5[nH]c(cc6nc(cc1[nH]2)C(C)=C6CC)c(C)c5C(=O)[C@@H]4C(=O)OC)[C@@H](CCC(=O)O)[C@@H]3C [pheophorbide a]	–	potent anti-HIV agent
